{"source": "paper PMC7180948", "about": "“New Insights into 4-Anilinoquinazolines as Inhibitors of Cardiac Troponin I–Interacting Kinase (TNNi3K)” (Molecules, 2020)", "experiment_in_all_cases": "biochemical", "parameters_in_all_cases": "KINOMEscan competition binding panel (Eurofins DiscoverX), single concentration, % inhibition", "details_in_all_cases": "read-out: 7 at 1 µM % inhibition", "key": {"p38-alpha": {"molecular_target": "T1, p38-alpha (Homo sapiens, UniProt Q16539)", "T1 construct": "gene MAPK14", "in_short": "(§1)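 Compounds were submitted at 1 µM to a KINOMEscan assay covering more than 400 human kinases. The screen served to define the selectivity profile.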"}, "STK16": {"molecular_target": "STK16 (Homo sapiens, UniProt O75716)", "sequence (O75716 whole entry)": "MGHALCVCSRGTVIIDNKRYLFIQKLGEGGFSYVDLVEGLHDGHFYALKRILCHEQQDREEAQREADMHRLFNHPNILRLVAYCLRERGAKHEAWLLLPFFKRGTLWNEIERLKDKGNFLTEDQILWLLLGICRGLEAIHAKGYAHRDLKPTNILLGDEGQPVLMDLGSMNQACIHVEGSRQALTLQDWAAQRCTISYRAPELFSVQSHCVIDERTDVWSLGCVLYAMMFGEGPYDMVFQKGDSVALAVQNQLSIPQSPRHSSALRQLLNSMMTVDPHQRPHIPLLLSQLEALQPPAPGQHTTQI", "in_short": "as §1"}, "CDKL2": {"molecular_target": "CDKL2 (Homo sapiens, UniProt Q92772)", "sequence (Q92772 whole entry)": "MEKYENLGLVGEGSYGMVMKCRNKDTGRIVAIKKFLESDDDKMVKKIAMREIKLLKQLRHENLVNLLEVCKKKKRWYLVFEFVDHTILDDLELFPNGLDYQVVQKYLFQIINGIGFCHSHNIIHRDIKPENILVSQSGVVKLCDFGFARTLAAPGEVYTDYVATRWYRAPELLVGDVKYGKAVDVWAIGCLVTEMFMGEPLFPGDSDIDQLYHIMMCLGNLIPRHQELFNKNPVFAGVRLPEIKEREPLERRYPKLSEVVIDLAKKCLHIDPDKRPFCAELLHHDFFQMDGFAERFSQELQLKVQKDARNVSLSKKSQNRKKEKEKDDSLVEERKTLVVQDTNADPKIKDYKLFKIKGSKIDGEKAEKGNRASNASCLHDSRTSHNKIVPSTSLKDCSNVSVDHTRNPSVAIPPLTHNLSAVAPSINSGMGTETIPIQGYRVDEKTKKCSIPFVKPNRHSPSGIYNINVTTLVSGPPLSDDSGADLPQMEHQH", "in_short": "as §1"}, "p38-beta": {"molecular_target": "T2, p38-beta (Homo sapiens, UniProt Q15759)", "T2 construct": "gene MAPK11", "in_short": "as §1"}, "p38-gamma": {"molecular_target": "T3, p38-gamma (Homo sapiens, UniProt P53778)", "T3 construct": "gene MAPK12", "in_short": "as §1"}, "KIT(V559D,T670I)": {"molecular_target": "KIT(V559D,T670I) (Homo sapiens, UniProt P10721, T670I/V559D)", "sequence (P10721 whole entry V559D/T670I)": "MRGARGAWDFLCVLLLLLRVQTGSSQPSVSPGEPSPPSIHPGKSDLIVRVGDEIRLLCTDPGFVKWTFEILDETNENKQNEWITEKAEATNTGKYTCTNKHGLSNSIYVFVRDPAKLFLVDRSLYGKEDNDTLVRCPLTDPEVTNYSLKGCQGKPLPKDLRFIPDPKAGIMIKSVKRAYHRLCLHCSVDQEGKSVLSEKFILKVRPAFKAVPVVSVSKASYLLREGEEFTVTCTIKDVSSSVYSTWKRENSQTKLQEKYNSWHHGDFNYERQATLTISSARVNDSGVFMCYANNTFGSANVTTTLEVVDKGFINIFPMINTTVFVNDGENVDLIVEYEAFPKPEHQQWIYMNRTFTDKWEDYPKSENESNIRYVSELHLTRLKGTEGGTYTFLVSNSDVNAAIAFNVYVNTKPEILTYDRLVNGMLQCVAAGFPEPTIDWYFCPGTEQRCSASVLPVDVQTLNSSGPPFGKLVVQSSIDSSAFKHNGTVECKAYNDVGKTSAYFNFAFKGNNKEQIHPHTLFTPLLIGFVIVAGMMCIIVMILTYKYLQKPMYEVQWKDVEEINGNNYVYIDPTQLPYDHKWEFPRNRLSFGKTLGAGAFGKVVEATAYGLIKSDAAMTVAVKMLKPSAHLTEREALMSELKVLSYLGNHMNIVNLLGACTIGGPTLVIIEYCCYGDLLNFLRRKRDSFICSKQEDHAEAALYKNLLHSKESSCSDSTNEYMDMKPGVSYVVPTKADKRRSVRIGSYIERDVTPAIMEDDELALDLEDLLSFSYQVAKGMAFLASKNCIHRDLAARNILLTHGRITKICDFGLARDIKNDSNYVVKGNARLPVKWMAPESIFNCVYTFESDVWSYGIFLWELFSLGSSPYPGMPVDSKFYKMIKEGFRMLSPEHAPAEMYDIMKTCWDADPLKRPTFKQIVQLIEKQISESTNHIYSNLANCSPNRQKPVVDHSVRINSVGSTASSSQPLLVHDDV", "in_short": "as §1"}, "NIK": {"molecular_target": "T4, NIK (Homo sapiens, UniProt Q99558)", "T4 construct": "gene MAP3K14", "in_short": "as §1"}, "LKB1": {"molecular_target": "T5, LKB1 (Homo sapiens, UniProt Q15831)", "T5 construct": "gene STK11", "in_short": "as §1"}, "CAMK1G": {"molecular_target": "CAMK1G (Homo sapiens, UniProt Q96NX5)", "sequence (Q96NX5 whole entry)": "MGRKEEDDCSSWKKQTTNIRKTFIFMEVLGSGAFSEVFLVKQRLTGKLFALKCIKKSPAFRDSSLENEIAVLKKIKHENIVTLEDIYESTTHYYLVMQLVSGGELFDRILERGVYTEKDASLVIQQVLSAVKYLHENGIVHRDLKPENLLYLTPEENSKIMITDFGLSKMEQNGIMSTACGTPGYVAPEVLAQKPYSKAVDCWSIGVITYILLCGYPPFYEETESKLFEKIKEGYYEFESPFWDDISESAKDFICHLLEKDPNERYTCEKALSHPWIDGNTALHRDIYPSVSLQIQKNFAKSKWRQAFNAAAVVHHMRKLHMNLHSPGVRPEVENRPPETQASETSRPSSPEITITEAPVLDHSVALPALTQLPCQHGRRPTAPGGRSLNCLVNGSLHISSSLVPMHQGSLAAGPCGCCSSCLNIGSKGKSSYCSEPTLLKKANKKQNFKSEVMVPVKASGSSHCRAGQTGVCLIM", "in_short": "as §1"}, "PFTK1": {"molecular_target": "T6, PFTK1 (Homo sapiens, UniProt O94921)", "T6 construct": "gene CDK14", "in_short": "as §1"}, "EPHA4": {"molecular_target": "EPHA4 (Homo sapiens, UniProt P54764)", "in_short": "as §1"}, "MAPKAPK5": {"molecular_target": "MAPKAPK5 (Homo sapiens, UniProt Q8IW41)", "in_short": "as §1"}, "FAK": {"molecular_target": "T7, FAK (Homo sapiens, UniProt Q05397)", "T7 construct": "gene PTK2", "in_short": "as §1"}, "RIPK5": {"molecular_target": "T8, RIPK5 (Homo sapiens, UniProt Q6XUX3)", "T8 construct": "gene DSTYK", "in_short": "as §1"}, "LRRK2": {"molecular_target": "LRRK2 (Homo sapiens, UniProt Q5S007)", "in_short": "as §1"}, "EGFR(G719S)": {"molecular_target": "EGFR(G719S) (Homo sapiens, UniProt P00533, G719S)", "sequence (P00533 whole entry G719S)": "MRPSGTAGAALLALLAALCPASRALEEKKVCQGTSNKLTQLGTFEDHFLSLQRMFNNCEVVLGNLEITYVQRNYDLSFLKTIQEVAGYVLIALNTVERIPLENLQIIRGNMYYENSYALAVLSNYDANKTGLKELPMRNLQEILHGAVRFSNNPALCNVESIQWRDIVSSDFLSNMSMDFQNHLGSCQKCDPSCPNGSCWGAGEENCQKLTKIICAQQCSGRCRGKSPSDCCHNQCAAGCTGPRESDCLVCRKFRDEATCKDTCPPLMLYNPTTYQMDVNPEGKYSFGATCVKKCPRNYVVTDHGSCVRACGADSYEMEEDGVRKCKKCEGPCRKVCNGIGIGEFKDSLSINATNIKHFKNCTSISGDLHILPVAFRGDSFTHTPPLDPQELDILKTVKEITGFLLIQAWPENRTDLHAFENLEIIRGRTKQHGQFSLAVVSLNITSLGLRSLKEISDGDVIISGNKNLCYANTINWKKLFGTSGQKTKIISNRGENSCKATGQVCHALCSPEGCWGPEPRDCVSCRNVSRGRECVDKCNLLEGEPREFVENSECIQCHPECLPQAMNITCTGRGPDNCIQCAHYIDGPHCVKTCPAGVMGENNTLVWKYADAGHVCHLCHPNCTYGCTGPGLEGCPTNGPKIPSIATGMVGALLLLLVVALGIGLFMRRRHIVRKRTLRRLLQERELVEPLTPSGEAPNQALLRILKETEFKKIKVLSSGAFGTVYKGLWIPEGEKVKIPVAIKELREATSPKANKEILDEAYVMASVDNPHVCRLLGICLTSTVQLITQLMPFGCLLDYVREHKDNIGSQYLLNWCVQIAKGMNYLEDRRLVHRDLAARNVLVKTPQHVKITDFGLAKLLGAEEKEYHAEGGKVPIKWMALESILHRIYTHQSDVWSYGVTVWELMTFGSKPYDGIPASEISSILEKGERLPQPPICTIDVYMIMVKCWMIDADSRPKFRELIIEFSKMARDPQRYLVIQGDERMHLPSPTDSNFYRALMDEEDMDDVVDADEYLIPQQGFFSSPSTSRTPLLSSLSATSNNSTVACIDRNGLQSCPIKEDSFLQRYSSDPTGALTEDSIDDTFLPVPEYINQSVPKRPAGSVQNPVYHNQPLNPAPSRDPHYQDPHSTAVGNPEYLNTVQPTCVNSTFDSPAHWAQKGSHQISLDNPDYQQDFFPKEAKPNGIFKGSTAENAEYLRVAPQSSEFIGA", "in_short": "as §1"}, "SIK2": {"molecular_target": "SIK2 (Homo sapiens, UniProt Q9H0K1)", "sequence (Q9H0K1 whole entry)": "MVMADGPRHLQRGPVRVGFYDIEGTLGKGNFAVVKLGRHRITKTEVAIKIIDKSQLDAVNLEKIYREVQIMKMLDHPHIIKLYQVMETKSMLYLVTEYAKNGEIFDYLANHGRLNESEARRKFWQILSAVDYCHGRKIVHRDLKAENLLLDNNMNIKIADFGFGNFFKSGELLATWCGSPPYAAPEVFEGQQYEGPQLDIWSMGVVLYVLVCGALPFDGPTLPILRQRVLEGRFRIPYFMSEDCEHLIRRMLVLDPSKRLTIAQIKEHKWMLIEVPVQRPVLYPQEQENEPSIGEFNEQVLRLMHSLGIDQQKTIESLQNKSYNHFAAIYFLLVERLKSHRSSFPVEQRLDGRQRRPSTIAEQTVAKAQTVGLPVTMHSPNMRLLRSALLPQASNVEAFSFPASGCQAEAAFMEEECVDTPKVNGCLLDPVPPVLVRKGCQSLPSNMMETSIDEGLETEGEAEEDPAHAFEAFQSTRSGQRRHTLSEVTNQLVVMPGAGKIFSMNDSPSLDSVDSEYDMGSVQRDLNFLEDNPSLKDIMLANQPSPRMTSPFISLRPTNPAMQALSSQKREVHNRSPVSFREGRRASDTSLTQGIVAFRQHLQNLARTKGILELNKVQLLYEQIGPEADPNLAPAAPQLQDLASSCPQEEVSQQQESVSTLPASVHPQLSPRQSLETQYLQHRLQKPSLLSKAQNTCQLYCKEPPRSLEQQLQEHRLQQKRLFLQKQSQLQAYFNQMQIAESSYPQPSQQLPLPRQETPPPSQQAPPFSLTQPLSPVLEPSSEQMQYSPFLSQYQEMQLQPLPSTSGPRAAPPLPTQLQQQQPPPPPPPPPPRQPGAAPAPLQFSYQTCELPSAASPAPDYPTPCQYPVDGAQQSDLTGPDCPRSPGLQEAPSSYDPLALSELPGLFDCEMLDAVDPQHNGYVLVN", "in_short": "as §1"}, "PRKX": {"molecular_target": "PRKX (Homo sapiens, UniProt P51817)", "in_short": "as §1"}, "MELK": {"molecular_target": "MELK (Homo sapiens, UniProt Q14680)", "in_short": "as §1"}, "TNK1": {"molecular_target": "TNK1 (Homo sapiens, UniProt Q13470)", "sequence (Q13470 whole entry)": "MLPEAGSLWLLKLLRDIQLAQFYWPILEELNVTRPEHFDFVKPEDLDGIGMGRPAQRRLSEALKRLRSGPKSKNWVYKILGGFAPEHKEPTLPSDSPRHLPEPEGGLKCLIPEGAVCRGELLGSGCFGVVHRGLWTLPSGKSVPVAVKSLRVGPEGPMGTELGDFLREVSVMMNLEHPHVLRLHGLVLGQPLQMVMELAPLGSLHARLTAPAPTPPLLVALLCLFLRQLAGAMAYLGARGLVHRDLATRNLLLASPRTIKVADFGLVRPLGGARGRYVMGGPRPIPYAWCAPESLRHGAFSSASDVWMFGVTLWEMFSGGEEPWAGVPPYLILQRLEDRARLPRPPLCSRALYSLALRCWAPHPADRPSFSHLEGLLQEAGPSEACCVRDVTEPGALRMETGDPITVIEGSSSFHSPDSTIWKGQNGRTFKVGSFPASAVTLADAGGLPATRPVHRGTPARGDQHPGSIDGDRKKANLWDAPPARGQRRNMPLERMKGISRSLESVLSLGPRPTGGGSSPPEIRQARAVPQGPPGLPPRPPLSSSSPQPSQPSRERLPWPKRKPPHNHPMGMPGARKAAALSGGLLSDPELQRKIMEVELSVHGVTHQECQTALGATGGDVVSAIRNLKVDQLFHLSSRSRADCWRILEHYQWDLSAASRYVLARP", "in_short": "as §1"}, "ABL1-nonphosphorylated": {"molecular_target": "T9, ABL1-nonphosphorylated (Homo sapiens, UniProt P00519)", "T9 construct": "nonphosphorylated", "in_short": "as §1"}, "ICK": {"molecular_target": "T10, ICK (Homo sapiens, UniProt Q9UPZ9)", "T10 construct": "gene CILK1", "in_short": "as §1"}, "GCN2(Kin.Dom.2,S808G)": {"molecular_target": "T11, GCN2(Kin.Dom.2,S808G) (Homo sapiens, UniProt Q9P2K8, S808G)", "T11 construct": "gene EIF2AK4; Kin.Dom.2", "in_short": "as §1"}, "INSR": {"molecular_target": "INSR (Homo sapiens, UniProt P06213)", "in_short": "as §1"}}}
{"smiles": "CNS(=O)(=O)c1ccc(N(C)C)c(Nc2ncnc3cc(OC)c(OC)cc23)c1", "note": "[compound 7, 3-((6,7-dimethoxyquinazolin-4-yl)amino)-4-(dimethylamino)-N-methylbenzenesulfonamide]", "values": [{"measurement": "inhibition at 1 µM", "setting": "p38-alpha", "result": 0, "unit": "%"}, {"measurement": "inhibition at 1 µM", "setting": "STK16", "result": 0, "unit": "%"}, {"measurement": "inhibition at 1 µM", "setting": "CDKL2", "result": 0, "unit": "%"}, {"measurement": "inhibition at 1 µM", "setting": "p38-beta", "result": 0, "unit": "%"}, {"measurement": "inhibition at 1 µM", "setting": "p38-gamma", "result": 0, "unit": "%"}, {"measurement": "inhibition at 1 µM", "setting": "KIT(V559D,T670I)", "result": 8, "unit": "%"}, {"measurement": "inhibition at 1 µM", "setting": "NIK", "result": 0, "unit": "%"}, {"measurement": "inhibition at 1 µM", "setting": "LKB1", "result": 0, "unit": "%"}, {"measurement": "inhibition at 1 µM", "setting": "CAMK1G", "result": 0, "unit": "%"}, {"measurement": "inhibition at 1 µM", "setting": "PFTK1", "result": 0, "unit": "%"}, {"measurement": "inhibition at 1 µM", "setting": "EPHA4", "result": 0, "unit": "%"}, {"measurement": "inhibition at 1 µM", "setting": "MAPKAPK5", "result": 27, "unit": "%"}, {"measurement": "inhibition at 1 µM", "setting": "FAK", "result": 8, "unit": "%"}, {"measurement": "inhibition at 1 µM", "setting": "RIPK5", "result": 49, "unit": "%"}, {"measurement": "inhibition at 1 µM", "setting": "LRRK2", "result": 9, "unit": "%"}, {"measurement": "inhibition at 1 µM", "setting": "EGFR(G719S)", "result": 0, "unit": "%"}, {"measurement": "inhibition at 1 µM", "setting": "SIK2", "result": 69, "unit": "%"}, {"measurement": "inhibition at 1 µM", "setting": "PRKX", "result": 0, "unit": "%"}, {"measurement": "inhibition at 1 µM", "setting": "MELK", "result": 17, "unit": "%"}, {"measurement": "inhibition at 1 µM", "setting": "TNK1", "result": 37, "unit": "%"}, {"measurement": "inhibition at 1 µM", "setting": "ABL1-nonphosphorylated", "result": 21, "unit": "%"}, {"measurement": "inhibition at 1 µM", "setting": "ICK", "result": 7, "unit": "%"}, {"measurement": "inhibition at 1 µM", "setting": "GCN2(Kin.Dom.2,S808G)", "result": 7, "unit": "%"}, {"measurement": "inhibition at 1 µM", "setting": "INSR", "result": 17, "unit": "%"}]}
